# Assay results as given in PMC5727100, “Evolution of a flipped pathway creates metabolic innovation in tomato trichomes through BAHD enzyme promiscuity” (Nature Communications, 2017).
# Biological target: T1, S. arcanum LA2172-ASAT2 (Solanum arcanum, UniProt A0A0U2QQP2)
# T1 construct: pET28b, His-tag nickel purified from E. coli BL21 Rosetta
# T1 sequence (A0A0U2QQP2 1-446): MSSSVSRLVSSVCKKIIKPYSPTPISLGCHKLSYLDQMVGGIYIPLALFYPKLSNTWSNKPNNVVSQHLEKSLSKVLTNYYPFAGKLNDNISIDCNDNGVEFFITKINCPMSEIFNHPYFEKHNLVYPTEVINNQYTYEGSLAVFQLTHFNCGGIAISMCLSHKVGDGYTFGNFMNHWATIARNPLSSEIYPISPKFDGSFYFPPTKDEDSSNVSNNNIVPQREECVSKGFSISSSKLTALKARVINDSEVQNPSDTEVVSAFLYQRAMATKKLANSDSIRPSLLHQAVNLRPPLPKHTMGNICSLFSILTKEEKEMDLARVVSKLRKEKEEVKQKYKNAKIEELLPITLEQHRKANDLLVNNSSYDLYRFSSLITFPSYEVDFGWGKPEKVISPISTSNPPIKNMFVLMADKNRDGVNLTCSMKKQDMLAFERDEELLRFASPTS
# Assay: LC/MS product detection
# Assay type: biochemical
# Conditions: acyl-CoA donor 100 uM; acceptor 50 uM; pH 6.0, 30 C
smiles,measurement,value
CC(C)CC(=O)O[C@H]1[C@H](O)[C@@H](O)[C@@H](O[C@]2(CO)O[C@H](CO)[C@@H](O)[C@@H]2O)O[C@@H]1CO [S1:5 (iC5^R4)],LC/MS product detection,all characterized ASAT2 proteins in this tomato subclade possessed only F-type enzymatic activities
